# Measurements: patent US7728003B2, “5-oxo-5,8-dihydro-pyrido-pyrimidines as inhibitors of c-fms kinase” (Janssen Pharmaceutica N.V., priority 2005, dated 2010)
# Target: c-fms (Homo sapiens, UniProt P07333)
# Test: c-fms autophosphorylation, fluorescence polarization competition immunoassay
# Format: biochemical
# Settings: 10 nM c-fms, 1 mM ATP; for inhibition at 0.1 µM: test concentration 0.1 μM, read-out: c-fms Autophosphorylation Percent Inhibition, % @ 0.1 μM; for inhibition at 1 µM: test concentration 1 μM, read-out: c-fms Autophosphorylation Percent Inhibition, % @ 1 μM
# Experimental: The assay buffer used was 100 mM 4-(2-hydroxyethyl)piperazine 1-ethanesulfonic acid (HEPES), pH 7.5, 1 mM 1,4-dithio-DL-threitol (DTT), 0.01% (v/v) Tween-20. Compounds were diluted in assay buffer containing 4% dimethylsulfoxide (DMSO) just prior to the assay. To each well, 5 μL of compound were added followed by the addition of 3 μL of a mix containing 33 nM c-fms and 16.7 mM MgCl2 (Sigma) in assay buffer. The kinase reaction was initiated by adding 2 μL of 5 mM ATP (Sigma) in assay buffer. The final concentrations in the assay were 10 nM c-fms, 1 mM ATP, 5 mM MgCl2, 2% DMSO. Control reactions were ran in each plate: in positive and negative control wells, assay buffer (made 4% in DMSO) was substituted for the compound; in addition, positive control wells received 1.2 μL of 50 mM ethylenediaminetetraaceticacid (EDTA).
# The plates were incubated at room temperature for 45 min. At the end of the incubation, the reaction was quenched with 1.2 μL of 50 mM EDTA (EDTA was not added to the positive control wells at this point; see above). Following a 5-min incubation, each well received 10 μL of a 1:1:3 mixture of anti-phosphotyrosine antibody, 10X, PTK green tracer, 10X (vortexed), FP dilution buffer, respectively (all from PanVera, cat. # P2837). The plate was covered, incubated for 30 min at room temperature and the fluorescence polarization was read on the Analyst. The instrument settings were: 485 nm excitation filter; 530 nm emission filter; Z height: middle of well; G factor: 0.93.
# The percent inhibition is shown in Table 1 at the indicated test concentration. The IC50 shown in Table 2 are averages of three independent measurements.
# c-fms, sequence (P07333 20-972): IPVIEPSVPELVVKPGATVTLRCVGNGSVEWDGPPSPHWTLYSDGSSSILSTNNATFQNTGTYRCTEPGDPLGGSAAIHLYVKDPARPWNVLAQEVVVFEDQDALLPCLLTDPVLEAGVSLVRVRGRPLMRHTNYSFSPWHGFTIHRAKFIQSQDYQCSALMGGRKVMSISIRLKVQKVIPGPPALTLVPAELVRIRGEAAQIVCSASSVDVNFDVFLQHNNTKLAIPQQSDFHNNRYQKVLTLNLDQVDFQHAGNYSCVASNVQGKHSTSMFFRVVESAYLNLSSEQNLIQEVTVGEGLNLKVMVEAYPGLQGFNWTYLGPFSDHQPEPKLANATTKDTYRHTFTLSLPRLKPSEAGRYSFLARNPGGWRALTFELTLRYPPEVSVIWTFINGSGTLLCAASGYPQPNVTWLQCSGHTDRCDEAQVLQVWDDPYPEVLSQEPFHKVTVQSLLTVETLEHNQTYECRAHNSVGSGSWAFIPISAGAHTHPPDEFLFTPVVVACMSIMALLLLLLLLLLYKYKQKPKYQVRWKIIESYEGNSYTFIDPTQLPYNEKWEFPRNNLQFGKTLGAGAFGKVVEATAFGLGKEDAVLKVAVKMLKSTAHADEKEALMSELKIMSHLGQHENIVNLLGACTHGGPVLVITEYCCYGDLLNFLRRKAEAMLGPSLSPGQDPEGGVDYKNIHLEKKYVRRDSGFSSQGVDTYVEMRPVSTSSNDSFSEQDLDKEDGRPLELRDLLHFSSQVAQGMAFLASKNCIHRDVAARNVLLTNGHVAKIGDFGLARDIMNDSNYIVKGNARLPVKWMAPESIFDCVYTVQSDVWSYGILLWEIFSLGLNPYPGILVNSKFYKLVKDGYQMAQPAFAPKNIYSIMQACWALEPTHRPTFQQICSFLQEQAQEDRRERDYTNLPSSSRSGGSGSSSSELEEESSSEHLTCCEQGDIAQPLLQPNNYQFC
compound,measurement,value
"NC(=O)c1cn(C2CCCCC2)c2nc(NCCCn3ccnc3)ncc2c1=O [Cpd 28, 8-Cyclohexyl-2-(3-imidazol-1-yl-propylamino)-5-oxo-5,8-dihydro-pyrido[2,3-d]pyrimidine-6-carboxylic acid amide]",inhibition at 0.1 µM,31%
same,inhibition at 1 µM,69%
"CN(C)CCCNc1ncc2c(=O)c(C(N)=O)cn(C3CCCCC3)c2n1 [Cpd 29, 8-Cyclohexyl-2-(3-dimethylamino-propylamino)-5-oxo-5,8-dihydro-pyrido[2,3-d]pyrimidine-6-carboxylic acid amide]",inhibition at 0.1 µM,22%
same,inhibition at 1 µM,65%
"NC(=O)c1cn(C2CCCCC2)c2nc(NCCCN3CCOCC3)ncc2c1=O [Cpd 30, 8-Cyclohexyl-2-(3-morpholin-4-yl-propylamino)-5-oxo-5,8-dihydro-pyrido[2,3-d]pyrimidine-6-carboxylic acid amide]",inhibition at 0.1 µM,24%
same,inhibition at 1 µM,68%
"COCCCNc1ncc2c(=O)c(C(N)=O)cn(C3CCCCC3)c2n1 [Cpd 31, 8-Cyclohexyl-2-(3-methoxy-propylamino)-5-oxo-5,8-dihydro-pyrido[2,3-d]pyrimidine-6-carboxylic acid amide]",inhibition at 0.1 µM,25%
same,inhibition at 1 µM,62%
"NC(=O)c1cn(C2CCCCC2)c2nc(NCCCN3CCCC3=O)ncc2c1=O [Cpd 32, 8-Cyclohexyl-5-oxo-2-[3-(2-oxo-pyrrolidin-1-yl)-propylamino]-5,8-dihydro-pyrido[2,3-d]pyrimidine-6-carboxylic acid amide]",inhibition at 0.1 µM,17%
same,inhibition at 1 µM,52%
"CN1CCN(CCCNc2ncc3c(=O)c(C(N)=O)cn(C4CCCCC4)c3n2)CC1 [Cpd 33, 8-Cyclohexyl-2-[3-(4-methyl-piperazin-1-yl)-propylamino]-5-oxo-5,8-dihydro-pyrido[2,3-d]pyrimidine-6-carboxylic acid amide]",inhibition at 0.1 µM,31%
same,inhibition at 1 µM,70%
"NC(=O)c1cn(C2CCCCC2)c2nc(NCCCN3CCCC3)ncc2c1=O [Cpd 34, 8-Cyclohexyl-5-oxo-2-(3-pyrrolidin-1-yl-propylamino)-5,8-dihydro-pyrido[2,3-d]pyrimidine-6-carboxylic acid amide]",inhibition at 0.1 µM,31%
same,inhibition at 1 µM,64%
"COCCNc1ncc2c(=O)c(C(N)=O)cn(C3CCCCC3)c2n1 [Cpd 35, 8-Cyclohexyl-2-(2-methoxy-ethylamino)-5-oxo-5,8-dihydro-pyrido[2,3-d]pyrimidine-6-carboxylic acid amide]",inhibition at 0.1 µM,29%
same,inhibition at 1 µM,67%
"NC(=O)c1cn(C2CCCCC2)c2nc(NCCN3CCCC3)ncc2c1=O [Cpd 36, 8-Cyclohexyl-5-oxo-2-(2-pyrrolidin-1-yl-ethylamino)-5,8-dihydro-pyrido[2,3-d]pyrimidine-6-carboxylic acid amide]",inhibition at 0.1 µM,5%
same,inhibition at 1 µM,49%
"COc1ccc(CCNc2ncc3c(=O)c(C(N)=O)cn(C4CCCCC4)c3n2)cc1 [Cpd 37, 8-Cyclohexyl-2-[2-(4-methoxy-phenyl)-ethylamino]-5-oxo-5,8-dihydro-pyrido[2,3-d]pyrimidine-6-carboxylic acid amide]",inhibition at 0.1 µM,29%
same,inhibition at 1 µM,41%
"NC(=O)c1cn(C2CCCCC2)c2nc(NCCN3CCCCC3)ncc2c1=O [Cpd 38, 8-Cyclohexyl-5-oxo-2-(2-piperidin-1-yl-ethylamino)-5,8-dihydro-pyrido[2,3-d]pyrimidine-6-carboxylic acid amide]",inhibition at 0.1 µM,19%
same,inhibition at 1 µM,56%
"NC(=O)c1cn(C2CCCCC2)c2nc(NCCN3CCOCC3)ncc2c1=O [Cpd 39, 8-Cyclohexyl-2-(2-morpholin-4-yl-ethylamino)-5-oxo-5,8-dihydro-pyrido[2,3-d]pyrimidine-6-carboxylic acid amide]",inhibition at 0.1 µM,21%
same,inhibition at 1 µM,59%
"COc1cc(CNc2ncc3c(=O)c(C(N)=O)cn(C4CCCCC4)c3n2)cc(OC)c1 [Cpd 40, 8-Cyclohexyl-2-(3,5-dimethoxy-benzylamino)-5-oxo-5,8-dihydro-pyrido[2,3-d]pyrimidine-6-carboxylic acid amide]",inhibition at 0.1 µM,10%
same,inhibition at 1 µM,47%
"CONC(=O)c1cn(C2CCCCC2)c2nc(NCCCn3ccnc3)ncc2c1=O [Cpd 41, 8-Cyclohexyl-2-(3-imidazol-1-yl-propylamino)-5-oxo-5,8-dihydro-pyrido[2,3-d]pyrimidine-6-carboxylic acid methoxy-amide]",inhibition at 0.1 µM,22%
same,inhibition at 1 µM,45%
"CONC(=O)c1cn(C2CCCCC2)c2nc(NCCCN(C)C)ncc2c1=O [Cpd 42, 8-Cyclohexyl-2-(3-dimethylamino-propylamino)-5-oxo-5,8-dihydro-pyrido[2,3-d]pyrimidine-6-carboxylic acid methoxy-amide]",inhibition at 0.1 µM,17%
same,inhibition at 1 µM,40%
"CONC(=O)c1cn(C2CCCCC2)c2nc(NCCCN3CCOCC3)ncc2c1=O [Cpd 43, 8-Cyclohexyl-2-(3-morpholin-4-yl-propylamino)-5-oxo-5,8-dihydro-pyrido[2,3-d]pyrimidine-6-carboxylic acid methoxy-amide]",inhibition at 0.1 µM,32%
same,inhibition at 1 µM,60%
"COCCCNc1ncc2c(=O)c(C(=O)NOC)cn(C3CCCCC3)c2n1 [Cpd 44, 8-Cyclohexyl-2-(3-methoxy-propylamino)-5-oxo-5,8-dihydro-pyrido[2,3-d]pyrimidine-6-carboxylic acid methoxy-amide]",inhibition at 0.1 µM,26%
same,inhibition at 1 µM,62%
"CONC(=O)c1cn(C2CCCCC2)c2nc(NCCCN3CCN(C)CC3)ncc2c1=O [Cpd 45, 8-Cyclohexyl-2-[3-(4-methyl-piperazin-1-yl)-propylamino]-5-oxo-5,8-dihydro-pyrido[2,3-d]pyrimidine-6-carboxylic acid methoxy-amide]",inhibition at 0.1 µM,43%
same,inhibition at 1 µM,67%
"CONC(=O)c1cn(C2CCCCC2)c2nc(NCCCN3CCCC3)ncc2c1=O [Cpd 46, 8-Cyclohexyl-5-oxo-2-(3-pyrrolidin-1-yl-propylamino)-5,8-dihydro-pyrido[2,3-d]pyrimidine-6-carboxylic acid methoxy-amide]",inhibition at 0.1 µM,28%
same,inhibition at 1 µM,51%
"COCCNc1ncc2c(=O)c(C(=O)NOC)cn(C3CCCCC3)c2n1 [Cpd 47, 8-Cyclohexyl-2-(2-methoxy-ethylamino)-5-oxo-5,8-dihydro-pyrido[2,3-d]pyrimidine-6-carboxylic acid methoxy-amide]",inhibition at 0.1 µM,31%
same,inhibition at 1 µM,57%
"CONC(=O)c1cn(C2CCCCC2)c2nc(NCCN3CCCC3)ncc2c1=O [Cpd 48, 8-Cyclohexyl-5-oxo-2-(2-pyrrolidin-1-yl-ethylamino)-5,8-dihydro-pyrido[2,3-d]pyrimidine-6-carboxylic acid methoxy-amide]",inhibition at 0.1 µM,0%
same,inhibition at 1 µM,18%
"CONC(=O)c1cn(C2CCCCC2)c2nc(NCCc3ccc(OC)cc3)ncc2c1=O [Cpd 49, 8-Cyclohexyl-2-[2-(4-methoxy-phenyl)-ethylamino]-5-oxo-5,8-dihydro-pyrido[2,3-d]pyrimidine-6-carboxylic acid methoxy-amide]",inhibition at 0.1 µM,38%
same,inhibition at 1 µM,68%
"CONC(=O)c1cn(C2CCCCC2)c2nc(NCCN3CCCCC3)ncc2c1=O [Cpd 50, 8-Cyclohexyl-5-oxo-2-(2-piperidin-1-yl-ethylamino)-5,8-dihydro-pyrido[2,3-d]pyrimidine-6-carboxylic acid methoxy-amide]",inhibition at 0.1 µM,3%
same,inhibition at 1 µM,20%
"CONC(=O)c1cn(C2CCCCC2)c2nc(NCCN3CCOCC3)ncc2c1=O [Cpd 51, 8-Cyclohexyl-2-(2-morpholin-4-yl-ethylamino)-5-oxo-5,8-dihydro-pyrido[2,3-d]pyrimidine-6-carboxylic acid methoxy-amide]",inhibition at 0.1 µM,17%
same,inhibition at 1 µM,44%
"CONC(=O)c1cn(C2CCCCC2)c2nc(NCc3cc(OC)cc(OC)c3)ncc2c1=O [Cpd 52, 8-Cyclohexyl-2-(3,5-dimethoxy-benzylamino)-5-oxo-5,8-dihydro-pyrido[2,3-d]pyrimidine-6-carboxylic acid methoxy-amide]",inhibition at 0.1 µM,23%
same,inhibition at 1 µM,53%
"CNC(=O)c1cn(C2CCCCC2)c2nc(NCCCn3ccnc3)ncc2c1=O [Cpd 53, 8-Cyclohexyl-2-(3-imidazol-1-yl-propylamino)-5-oxo-5,8-dihydro-pyrido[2,3-d]pyrimidine-6-carboxylic acid methylamide]",inhibition at 0.1 µM,10%
same,inhibition at 1 µM,21%
"CNC(=O)c1cn(C2CCCCC2)c2nc(NCCCN(C)C)ncc2c1=O [Cpd 54, 8-Cyclohexyl-2-(3-dimethylamino-propylamino)-5-oxo-5,8-dihydro-pyrido[2,3-d]pyrimidine-6-carboxylic acid methylamide]",inhibition at 0.1 µM,6%
same,inhibition at 1 µM,26%
